pKi: −log10 of the molar value.
Biological target: Adenosine receptor A2a (Rattus norvegicus, UniProt P30543)
Sequence (P30543 whole entry): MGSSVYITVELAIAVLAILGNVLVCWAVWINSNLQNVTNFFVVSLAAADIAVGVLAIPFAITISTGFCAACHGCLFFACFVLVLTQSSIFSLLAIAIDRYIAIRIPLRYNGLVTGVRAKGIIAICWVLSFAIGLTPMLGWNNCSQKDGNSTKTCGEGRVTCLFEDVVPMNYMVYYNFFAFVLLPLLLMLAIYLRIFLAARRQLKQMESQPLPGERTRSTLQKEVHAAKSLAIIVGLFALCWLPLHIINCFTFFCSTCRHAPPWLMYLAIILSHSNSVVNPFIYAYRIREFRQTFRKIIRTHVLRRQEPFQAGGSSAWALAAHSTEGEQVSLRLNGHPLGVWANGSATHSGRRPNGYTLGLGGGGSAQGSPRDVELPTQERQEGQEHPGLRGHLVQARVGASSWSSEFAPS

pKi: 5.70
SMILES: OC[C@H]1O[C@@H](n2cnc3c(NC4CCCC4)ncnc32)[C@H](O)[C@@H]1O
